# Data taken from ChEMBL document CHEMBL1201861, “Genomics of Drug Sensitity in Cancer screening data, Wellcome Trust Sanger Institute”.
# Legend:
# Assay in all cases: cells
# COLO-800 = type: functional, cell-based, Homo sapiens; details: Homo sapiens, COLO-800;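 note: growth inhibition of COLO-800 cells, read out with a cell viability assay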
# D283 Med = type: functional, cell-based, Homo sapiens; details: Homo sapiens, D283 Med
# ES6 = type: functional, cell-based, Homo sapiens; details: Homo sapiens, ES6;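 note: growth inhibition of human ES6 cells, read out with a cell viability assay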
# EW-11 = type: functional, cell-based, Homo sapiens; details: Homo sapiens, EW-11;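 note: growth inhibition of human EW-11 cells, measured with a cell viability assay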
# EW-3 = type: functional, cell-based; details: Homo sapiens;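 note: cell viability assay read-out, IC50 reflects inhibition of growth of the EW-3 cells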
# GAK = type: functional, cell-based, Homo sapiens; details: Homo sapiens, GAK;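 note: cell growth inhibition read out by a cell viability assay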
# HCC2218 = type: functional, cell-based; details: Homo sapiens;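 note: cell viability assay read-out, with IC50 given as the concentration that inhibits growth of the cell line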
# IST-SL1 = type: functional, cell-based, Homo sapiens; details: Homo sapiens, IST-SL1;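 note: growth inhibition of human IST-SL1 cells, read out with a cell viability assay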
# KE-37 = type: functional, cell-based; details: Homo sapiens;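 note: growth inhibition of KE-37 cells, read out with a cell viability assay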
# KS-1 = type: functional, cell-based, Homo sapiens; details: Homo sapiens, KS-1;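 note: growth inhibition of KS-1 cells, read out with a cell viability assay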
# LAN-6 = type: functional, cell-based, Homo sapiens; details: Homo sapiens, LAN-6;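 note: growth inhibition of LAN-6 cells, determined with a cell viability assay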
# LS-123 = type: functional, cell-based, Homo sapiens; details: Homo sapiens, LS-123
# MEG-01 = type: functional, cell-based; details: Homo sapiens;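 note: growth inhibition of MEG-01 cells, read out by a cell viability assay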
# MFH-ino = type: functional, cell-based; details: Homo sapiens;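 note: growth inhibition of human MFH-ino cells, read out by a cell viability assay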
# NCI-H1581 = type: functional, cell-based, Homo sapiens; details: Homo sapiens, NCI-H1581;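 note: cell growth inhibition read out by a viability assay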
# SBC-1 = type: functional, cell-based; details: Homo sapiens;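 note: cell viability assay measuring growth inhibition of the SBC-1 cell line, IC50 being the concentration that halves growth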
# SF-268 = type: functional, cell-based, Homo sapiens; details: Homo sapiens, SF-268;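 note: growth inhibition of SF-268 cells determined with a cell viability assay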
# SK-LMS-1 = type: functional, cell-based, Homo sapiens; details: Homo sapiens, SK-LMS-1;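 note: growth inhibition of human SK-LMS-1 cells, read out with a cell viability assay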
# SK-PN-DW = type: functional, cell-based; details: Homo sapiens;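 note: growth inhibition measured with a viability assay on these cells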
# A388 = type: functional, cell-based, Homo sapiens; details: Homo sapiens, A388;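 note: growth inhibition of human A388 cells, read out with a cell viability assay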
# A4-Fuk = type: functional, cell-based; details: Homo sapiens;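 note: growth inhibition of A4-Fuk cells, read out by a cell viability assay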
# ALL-PO = type: functional, cell-based; details: Homo sapiens;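 note: growth inhibition of ALL-PO cells, read out by a cell viability assay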
# VA-ES-BJ = type: functional, cell-based, Homo sapiens; details: Homo sapiens, VA-ES-BJ;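 note: growth inhibition of the VA-ES-BJ cell line, read out by a cell viability assay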
# IA-LM = type: functional, cell-based, Homo sapiens; details: Homo sapiens, IA-LM;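 note: cell viability assay measuring growth inhibition of human IA-LM cells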
# KLE = type: functional, cell-based, Homo sapiens; details: Homo sapiens, KLE;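 note: growth inhibition of human KLE cells, read out with a cell viability assay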
# SW982 = type: functional, cell-based; details: Homo sapiens;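 note: growth inhibition of SW982 cells, read out with a cell viability assay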
Compound,IC50 (COLO-800),IC50 (D283 Med),IC50 (ES6),IC50 (EW-11),IC50 (EW-3),IC50 (HCC2218),IC50 (IST-SL1),IC50 (KE-37),IC50 (KS-1),IC50 (LAN-6),IC50 (LS-123),IC50 (MEG-01),IC50 (MFH-ino),IC50 (NCI-H1581),IC50 (SBC-1),IC50 (SF-268),IC50 (SK-LMS-1),IC50 (SK-PN-DW),IC50 (A388),IC50 (A4-Fuk),other results
C=C1C(=O)O[C@@H]2C3O[C@]3(C)CC/C=C(\C)CC[C@@H]12 (stereo partly specified),> 5000 nM,> 5000 nM,> 5000 nM,> 5000 nM,> 5000 nM,> 5000 nM,> 5000 nM,> 5000 nM,> 5000 nM,> 5000 nM,> 5000 nM,> 5000 nM,> 5000 nM,> 5000 nM,> 5000 nM,> 5000 nM,> 5000 nM,> 5000 nM,> 5000 nM,> 5000 nM,IC50 (GAK): > 5000 nM; IC50 (ALL-PO): > 5000 nM; IC50 (VA-ES-BJ): > 5000 nM
CC1=C2C[C@H]3[C@@H](CC=C4C[C@@H](O)CC[C@@]43C)[C@@H]2CC[C@]12O[C@@H]1C[C@H](C)CN[C@H]1[C@H]2C [CYCLOPAMINE],> 16000 nM,> 16000 nM,> 16000 nM,> 16000 nM,> 16000 nM,> 16000 nM,> 16000 nM,> 16000 nM,> 16000 nM,> 16000 nM,> 16000 nM,> 16000 nM,> 16000 nM,> 16000 nM,> 16000 nM,> 16000 nM,> 16000 nM,> 16000 nM,> 16000 nM,> 16000 nM,IC50 (GAK): > 16000 nM; IC50 (ALL-PO): 11800 nM; IC50 (VA-ES-BJ): > 16000 nM
CS(=O)(=O)CCNCc1ccc(-c2ccc3ncnc(Nc4ccc(OCc5cccc(F)c5)c(Cl)c4)c3c2)o1 [LAPATINIB],> 2000 nM,> 2000 nM,> 2000 nM,> 2000 nM,> 2000 nM,53.3 nM,> 2000 nM,> 2000 nM,> 2000 nM,> 2000 nM,> 2000 nM,> 2000 nM,> 2000 nM,> 2000 nM,> 2000 nM,> 2000 nM,> 2000 nM,> 2000 nM,723 nM,> 2000 nM,IC50 (ALL-PO): > 2000 nM; IC50 (VA-ES-BJ): > 2000 nM
CCc1nc(N)nc(N)c1-c1ccc(Cl)cc1 [PYRIMETHAMINE],> 20000 nM,> 20000 nM,17200 nM,> 20000 nM,> 20000 nM,> 20000 nM,16100 nM,10200 nM,> 20000 nM,> 20000 nM,> 20000 nM,11800 nM,> 20000 nM,> 20000 nM,> 20000 nM,3600 nM,> 20000 nM,> 20000 nM,> 20000 nM,15800 nM,IC50 (GAK): > 20000 nM; IC50 (ALL-PO): 1190 nM; IC50 (VA-ES-BJ): 15200 nM
O=C(/C=C/c1ccccc1)NC(NC(=S)Nc1cccc2cccnc12)C(Cl)(Cl)Cl (stereo unspecified) [SALUBRINAL],> 16000 nM,> 16000 nM,> 16000 nM,> 16000 nM,> 16000 nM,> 16000 nM,> 16000 nM,15300 nM,> 16000 nM,> 16000 nM,> 16000 nM,> 16000 nM,> 16000 nM,> 16000 nM,> 16000 nM,> 16000 nM,> 16000 nM,> 16000 nM,> 16000 nM,14100 nM,IC50 (GAK): > 16000 nM; IC50 (ALL-PO): 4090 nM; IC50 (VA-ES-BJ): > 16000 nM
CN1CCN(CCOc2cc(OC3CCOCC3)c3c(Nc4c(Cl)ccc5c4OCO5)ncnc3c2)CC1 [SARACATINIB],[…],[…],[…],[…],[…],[…],[…],[…],1200 nM,[…],[…],237 nM,1780 nM,[…],[…],[…],[…],[…],[…],[…],IC50 (GAK): […]; IC50 (IA-LM): […]; IC50 (KLE): […]; IC50 (SW982): 1920 nM; IC50 (ALL-PO): […]; IC50 (VA-ES-BJ): […]
CO[C@H]1C[C@@H]2CC[C@@H](C)[C@@](O)(O2)C(=O)C(=O)N2CCCC[C@H]2C(=O)O[C@H]([C@H](C)C[C@@H]2CC[C@@H](O)[C@H](OC)C2)CC(=O)[C@H](C)/C=C(\C)[C@@H](O)[C@@H](OC)C(=O)[C@H](C)C[C@H](C)/C=C/C=C/C=C/1C [SIROLIMUS],> 100 nM,> 100 nM,3.43 nM,> 100 nM,> 100 nM,> 100 nM,> 100 nM,16.1 nM,2.45 nM,> 100 nM,> 100 nM,> 100 nM,> 100 nM,> 100 nM,> 100 nM,> 100 nM,2.49 nM,20.2 nM,44.8 nM,13.1 nM,IC50 (GAK): > 100 nM; IC50 (IA-LM): 68.1 nM; IC50 (KLE): > 100 nM; IC50 (SW982): > 100 nM; IC50 (ALL-PO): > 100 nM; IC50 (VA-ES-BJ): 0.723 nM
CNC(=O)c1cc(Oc2ccc(NC(=O)Nc3ccc(Cl)c(C(F)(F)F)c3)cc2)ccn1 [SORAFENIB],[…],[…],[…],[…],[…],3120 nM,[…],[…],3880 nM,[…],[…],1810 nM,2920 nM,[…],[…],[…],[…],[…],1590 nM,[…],IC50 (GAK): […]; IC50 (ALL-PO): 31.8 nM; IC50 (VA-ES-BJ): […]
CCC(=O)N1CCN(c2ccc(-n3c(=O)ccc4cnc5ccc(-c6cnc7ccccc7c6)cc5c43)cc2C(F)(F)F)CC1 [TORIN1],> 1200 nM,> 1200 nM,10.8 nM,> 1200 nM,217 nM,472 nM,858 nM,15.7 nM,13.9 nM,> 1200 nM,59.4 nM,186 nM,28.1 nM,297 nM,111 nM,98.2 nM,14.1 nM,49.5 nM,68.9 nM,13.2 nM,IC50 (GAK): 31.9 nM; IC50 (IA-LM): 29.2 nM; IC50 (KLE): 65.8 nM; IC50 (SW982): 42.5 nM; IC50 (ALL-PO): 49.6 nM; IC50 (VA-ES-BJ): 9.84 nM
Cc1cc(Nc2cc(N3CCN(C)CC3)nc(Sc3ccc(NC(=O)C4CC4)cc3)n2)n[nH]1 [TOZASERTIB],[…],[…],[…],[…],[…],[…],[…],521 nM,238 nM,[…],[…],278 nM,9.9 nM,[…],1130 nM,[…],1220 nM,791 nM,341 nM,116 nM,IC50 (GAK): […]; IC50 (IA-LM): […]; IC50 (KLE): […]; IC50 (SW982): 214 nM; IC50 (ALL-PO): 882 nM; IC50 (VA-ES-BJ): 201 nM
